Results on 10 molecules are retold here after patent publication US10478492B2, “Modifications of therapeutic agents for enhanced delivery to target sites” (Partikula LLC, priority 2016, dated 2019).

Like-named read-outs stand apart in the source and are kept apart here.

Data set [1] addresses monocarboxylate transporters (MCT). The note with it: competitive inhibitor of lactate transport in tumors; read-out: Ki as inhibitor of lactate transport; cited from earlier work.
A short description of data set [2]: Stability in cell culture media containing 10% FBS by HPLC. It is filed as in vitro ADME. As for the experimental part:
Stability of ADCA in cell culture media containing 10% FBS was examined by looking at the HPLC chromatograms and area under the peaks. For the study, […] solution of ADCA was prepared by mixing 10 μL of 100 mM DMSO stock solution with 1.99 mL of cell media. Turbidity was observed after mixing, however no precipitate was observed. The samples were then stored at 37° C., 150 μL aliquots were analyzed by HPLC (the sample was mixed before taking an aliquot, however no visible precipitate was observed even before mixing). Alanyl-DCA was detected at 205 nm with a retention time of 9.7 min on HPLC.
Stability of Mito-ADCA in cell culture media containing 10% FBS was monitored by examining the HPLC chromatograms and area under the peaks. Scheme below expected degradation products:
For this study, 500 μM solution of Mito-ADCA (MAD) was prepared by mixing 10 μL of 100 mM DMSO stock solution with 1.99 mL of cell culture media (RPMI 1640 medium, supplemented with 10% FBS, 1% Pen/strep). Turbidity was observed after mixing, however no precipitate was observed. The samples were then stored at 37° C., 150 μL aliquots were analyzed by HPLC (the sample was mixed before taking an aliquot, and no visible precipitate was observed even before mixing).
Using HPLC, MitoADCA (MAD), loss of one alanyl-DCA (MAD-ADCA), loss of three alanyl-DCA (i.e., TPP-Tris-OH) and the alanyl-DCA (ADCA) were tracked. MAD was detected and monitored at 268 nm with retention time of 18.08 min, Mito-A-DCA missing 1 alanyl DCA at 268 nm with retention time of 17.13 min, total amount of MAD and Mito-A-DCA missing 1 alanyl DCA at 268 nm, TPP-Tris-OH at 268 nm with retention time of 14.6 min, and alanyl DCA at 205 nm with retention time of 9.5 min. The MAD half-life in cell media at 500 μM was measured as ˜20 h. TPP-Tris-OH starts appearing in HPLC only after 10 h in media.

The target of a further data set is PDHK2 (Homo sapiens, UniProt Q15119). The note with it: cited from earlier work.
Data set [3] deals with PDH activity in primary rat hepatocytes. Conditions: read-out: EC50 for increase of PDH activity; cited from earlier work.
In another data set the test system is A549 cells. As to the kind of experiment: Cytotoxicity in A549 cells. It is filed as cell-based. From the text: (§1) Next the cytotoxicity ability of PDCA and PDCA-NPs were studied in A549 and HCT16 cells to evaluate the ability of these new formulations with respect to NaDCA.
(§2) Next the cytotoxicity ability of PalmMetformin and NPs were studied in A549 and HCT16 cells to evaluate the ability of these new formulations with respect to Meformin.

The test system of a further data set is HCT116 cells. As to the kind of experiment: Cytotoxicity in HCT116 cells. It is filed as cell-based.
Source text: as §1, §2

The nature of data set [4]: Stability in 18% rat serum by HPLC. It is filed as in vitro ADME. The procedure: (§3) In a further study, Mito-ADCA stability testing was carried out in rat serum. 0.5 mg/mL solutions 18% rat serum were prepared and analyzed by HPLC. Mito-ADCA was detected at 268 nm with a retention time of 18.08 min over time of 4500 min in 18% rat serum. […] After 2 d a peak of TPP-Tris-OH was observed. The amount of TPP-Tris-OH corresponded to 76% of the original.
(§4) Stability of TPP-bis-ADCA in rat serum and water was carried out using 500 μg/mL solution in 18% rat serum. The solution was analyzed by HPLC for two days.
(§5) Hydrolytic stability of TPP-ibDCA in serum, and in water was studied. A 500 μg/mL solution of TPP-ib-DCA in water, and in 18% rat serum was analyzed by HPLC using the method for Mito-ADCA/DCA detection described above. […] In water, hydrolysis of TPP-ib-DCA stops halfway likely due to the acidification of the solution.

Data set [5] is described as follows: Stability in water by HPLC. In kind it is physicochemical. The note with it: for stability in water: 2 days. As for the experimental part: as §3, §4, §5
Setting [6] is: A549 cells, 24 + 48 h, read-out: IC50 (24 + 48 h).
[7] abbreviates: A549 cells, 72 h, read-out: IC50 (72 h).
[8] abbreviates: 500 μg/mL in 18% rat serum, two days.

In general, Ki refers to a dissociation constant, usually derived from enzyme kinetics or from competition with a known ligand. For the molecule `N#CC(=Cc1ccc(O)cc1)C(=O)O` [ACCA, α-cyano-4-hydroxy cinnamic acid], the Ki in data set [1] was 500 µM.
`O=C(O)CCNC(=O)C(Cl)Cl` [ADCA, β-alanyl-DCA]: the “change in ADCA concentration (total area of absorbance peak)” value in data set [2] (1.5 mM, cell culture media with 10% FBS, 37° C., five days) is given as “virtually no change in ADCA concentration over five days”.
A word on the IC50: it is the point on the concentration scale where inhibition reaches its midpoint. The EC50 is the concentration giving half of the maximal effect. As for `CN(C)C(=O)c1ccc(S(=O)(=O)c2ccc(NC(=O)[C@@](C)(O)C(F)(F)F)c(Cl)c2)cc1` [AZD7545, 4-[3-chloro-4-[[(2R)-3,3,3-trifluoro-2-hydroxy-2-methylpropanoyl]amino]phenyl]sulfonyl-N,N-dimethylbenzamide], the IC50 on PDHK2 was 0.0064 µM. The EC50 in data set [3] was 0.105 µM.
As for `CN(C)C(=N)N=C(N)N` [Meformin, Metformin, reference compound], the IC50 with A549 cells (Homo sapiens, A549 cells, 24 + 48 h, Table 4, read-out: IC50 (24 + 48 h)) was > 500 µM; in the data set on A549 cells (Homo sapiens, A549 cells, 72 h, Table 4, read-out: IC50 (72 h)), > 500 µM; in the data set on A549 cells (Homo sapiens, A549 cells, read-out: IC50 values), > 500 µM; in the data set on HCT116 cells (Homo sapiens, HCT-116, 24 + 48 h, Table 4, read-out: IC50 (24 + 48 h)), > 500 µM; with HCT116 cells (Homo sapiens, HCT-116, 72 h, Table 4, read-out: IC50 (72 h)) it was > 500 µM; with HCT116 cells (Homo sapiens, HCT-116, read-out: IC50 values), > 500 µM.
One may read the half-life as how long it takes for the measured level to halve. High values mean slow loss, low ones fast loss. For the molecule `O=C(CCCCC[P+](c1ccccc1)(c1ccccc1)c1ccccc1)NC(COC(=O)CCNC(=O)C(Cl)Cl)(COC(=O)CCNC(=O)C(Cl)Cl)COC(=O)CCNC(=O)C(Cl)Cl.[Br-]` [Mito-ADCA, TPP-Tris-β-alanino-DCA], in data set [2] (cell culture medium with 10% FBS (no cells), 500 μM, RPMI 1640 with 10% FBS, 37° C.), the half-life at 500 μM is ~20 h. Also, the “species released by hydrolysis” value in data set [2] (cell media with 10% FBS) and in data set [4] (18% rat serum) was “Alanyl-DCA is released as a result of hydrolysis instead of DCA” each time. In addition, the half-life at 0.5 mg/mL in data set [4] (0.5 mg/mL in 18% rat serum) is ~7 h. Also, the stability in water result in data set [5] was “stable in water for 2 days without signs of decomposition”.
With `O=C([O-])C(Cl)Cl.[Na+]` [NaDCA, reference compound], the IC50 is > 20000 µM with A549 cells (setting [6]); > 20000 µM in the data set on A549 cells (setting [7]); ≥ 20000 µM with A549 cells (cell line not stated in the sentence (A549 and HCT16 cells studied), read-out: IC50 value); > 20000 µM with HCT116 cells (24 + 48 h, read-out: IC50 (24 + 48 h)); > 20000 µM in the data set on HCT116 cells (72 h, read-out: IC50 (72 h)).
As for `CCCCCCCCCCCCCCCC(=O)NC(COC(=O)CCNC(=O)C(Cl)Cl)(COC(=O)CCNC(=O)C(Cl)Cl)COC(=O)CCNC(=O)C(Cl)Cl` [PADCA, Palm-Tris-β-alanino-DCA], the IC50 with A549 cells (Homo sapiens, A549 cells, free PADCA, read-out: IC50 value) is ~400 µM.
On to `CCCCCCCCCCCCCCCC(=O)NC(COC(=O)C(Cl)Cl)(COC(=O)C(Cl)Cl)COC(=O)C(Cl)Cl` [PDCA, Palmitic-Tris-DCA], for which the IC50 with A549 cells (setting [6]) was 204 µM; in the data set with A549 cells (setting [7]), 175 µM; in the data set with A549 cells (cell line not stated in the sentence (values match A549 of Table 2), read-out: IC50 value), ~204 µM.
On to `O=C(NCCCCC(NC(=O)C(Cl)Cl)C(=O)NCCCC[P+](c1ccccc1)(c1ccccc1)c1ccccc1)C(Cl)Cl` (stereo not shown) [TPP-bis-ADCA], for which, in data set [4] (500 μg/mL in 18% rat serum, after 2 days), the decomposition in serum amounted to 2%. In data set [4] (setting [8]), the “detection of DCA” value was “no DCA was detected”; the stability in serum result is “stable in both serum and water”. The stability in water entry in data set [5] was “stable in both serum and water”.
As to `CC(C)(OC(=O)C(Cl)Cl)C(=O)NCCCC[P+](c1ccccc1)(c1ccccc1)c1ccccc1.[Br-]` [TPP-ib-DCA, (4-(2-(2,2-dichloroacetoxy)-2-methylpropanamido)butyl) triphenylphosphonium bromide], in data set [4] (500 μg/mL in 18% rat serum), the “appearance of free DCA” value was “delayed relative to the disappearance of the ester” and the “hydrolysis in serum compared with MitoDCA” value was “slower than MitoDCA”. The hydrolysis in water entry in data set [5] (500 μg/mL in water) was “stops halfway”.
